# Key:
# [1] = system: monoclonal antibody cocktail-induced arthritis; test: Mice monoclonal antibody cocktail-induced arthritis model; type: in vivo, Mice (BALB/c Cr Slc)
# Experimental: 1-1 Mice (BALB/c Cr Slc (SPF)) were used to examine arthritis suppressing effects of peptides of the present invention on monoclonal antibody cocktail-induced arthritis. Mice were fed normal chow and allowed to acclimate for 6 days before used in experiments.
# Arthritis was caused by intravenous administration of 2 mg/animal of an arthritis-inducing monoclonal antibody cocktail and three days later, intraperitoneal administration of 50 μg/animal of lipopolysaccharide (LPS). Peptides R1 and R9 each were intraperitoneally administered at a dose of 10 mg/kg once a day from the day following the LPS administration (day 4) to day 14. Peptide SP4 and the variant of peptide SP4 composed of the corresponding D-amino acids (except for glycine) each were intraperitoneally administered at a dose of 10 or 100 mg/kg once a day from the day following the LPS administration (day 4) to day 14. […] A control group was given physiological saline at 10 mL/kg once a day from day 4.
# To forty 7-week-old mice, the arthritis-inducing monoclonal antibody cocktail was intravenously administered at a dose of 2 mg/animal on day 0, and LPS was intraperitoneally administered at a dose of 50 μg/animal on day 3.
# […] As a control, physiological saline was intraperitoneally administered once a day from day 4, and the volume of administration was 10 ml/kg. […] Needles ([…]; Terumo) and syringes (1.0-ml capacity; Terumo) were used for administration.
# Observation of clinical score was performed on even days from day 0 to day 14 as follows. The total score for the extremities was set to a maximum of 12. Visual observation of swelling of the legs was performed.
# 0: normal joint 1: slight inflammation and redness 2: serious erythema and swelling over the whole limb and preventing the use of the limb 3: deformation of the limb or joint accompanied by ankylosis, joint stiffness, loss of function
# Results of examinations are expressed by mean value±standard error and were analyzed using EXSAS (Version 7.1.6, Arm Systex Co., Ltd.). Clinical scores were subjected to Wilcoxon's test. Quantitative data, such as body weights and leg volumes, were subjected to Bartlett's test, followed by Dunnett's multiple comparison test if the variance was uniform or by Steel's multiple comparison test if the variance was not uniform. The level of significance was set at 5% on both sides.
# [2] = system: TNF-α in plasma; test: TNF-α in plasma of adjuvant arthritis rats (ELISA); type: in vivo, rat; conditions: day 21 post-adjuvant
# Experimental: (§1) TNF-α and IL-1β in plasma were measured in a double-point method using the TNF-α ELISA kit (Lbis® TNF-α-rat) and the IL-1β ELISA kit (Quantikine® Rat IL-1β/IL-1F2).
# (§2) On day 21 post-adjuvant, the animals were subjected to autopsy, and plasma was prepared to measure IL-1β and TIN-α concentrations in plasma. In all the groups for which measurements were made, the concentration of TNF-α was below the detection limit (8 pg/mL).
# [3] = system: IL-1β in plasma; test: IL-1β in plasma of adjuvant arthritis rats (ELISA); type: in vivo, rat; conditions: day 21 post-adjuvant
# Experimental: as §1, §2
# [4] = day 6, 0.15 mg/kg intraperitoneal once a day from day 4
# [5] = day 14, 0.15 mg/kg intraperitoneal once a day from day 4
# [6] = 0.15 mg/kg oral, pre-administered group
compound,measurement,setting,value
CN(Cc1cnc2nc(N)nc(N)c2n1)c1ccc(C(=O)N[C@@H](CCC(=O)O)C(=O)O)cc1 [Methotrexate],hind-limb volume,"[1]; day 0, 0.15 mg/kg intraperitoneal group",0.216 cm^3
same,hind-limb volume,[1]; [4],0.381 cm^3
same,increasing rate of hind-limb volume (volume on day 0 = 100%),[1]; [4],176.2%
same,hind-limb volume,"[1]; day 8 (highest value), 0.15 mg/kg intraperitoneal once a day from day 4",0.441 cm^3
same,increasing rate of hind-limb volume (volume on day 0 = 100%),"[1]; day 8 (highest), 0.15 mg/kg intraperitoneal once a day from day 4",204.2%
same,clinical score,"[1]; day 12, 0.15 mg/kg intraperitoneal once a day from day 4",8.2±0.9
same,clinical score,[1]; [5],8.6±0.9
same,hind-limb volume,[1]; [5],0.356 cm^3
same,increasing rate of hind-limb volume (volume on day 0 = 100%),[1]; [5],165.4%
same,Concentrations of TNF-α in plasma,[2]; 0.15 mg/kg oral from day 10,N.D (N.D.: below detection limit)
same,Concentrations of TNF-α in plasma,[2]; [6],N.D (N.D.: below detection limit)
same,Concentrations of IL-1β in plasma,[3]; 0.15 mg/kg oral from day 10,22.6 ± 11.3 pg/mL
same,Concentrations of IL-1β in plasma,[3]; [6],18.4 ± 4.2 pg/mL

# Source: patent US20130225508A1, “PEPTIDE CAPABLE OF BINDING TO IMMUNOGLOBULIN” (priority 2010, published 2013)
